Like-named read-outs stand apart in the source and are kept apart here.
Target: T1, Nicotiana tabacum protoporphyrinogen oxidase (NtPPO) (Nicotiana tabacum, UniProt O24164)
T1 construct: gene PPXII
T1 sequence (O24164 1-504): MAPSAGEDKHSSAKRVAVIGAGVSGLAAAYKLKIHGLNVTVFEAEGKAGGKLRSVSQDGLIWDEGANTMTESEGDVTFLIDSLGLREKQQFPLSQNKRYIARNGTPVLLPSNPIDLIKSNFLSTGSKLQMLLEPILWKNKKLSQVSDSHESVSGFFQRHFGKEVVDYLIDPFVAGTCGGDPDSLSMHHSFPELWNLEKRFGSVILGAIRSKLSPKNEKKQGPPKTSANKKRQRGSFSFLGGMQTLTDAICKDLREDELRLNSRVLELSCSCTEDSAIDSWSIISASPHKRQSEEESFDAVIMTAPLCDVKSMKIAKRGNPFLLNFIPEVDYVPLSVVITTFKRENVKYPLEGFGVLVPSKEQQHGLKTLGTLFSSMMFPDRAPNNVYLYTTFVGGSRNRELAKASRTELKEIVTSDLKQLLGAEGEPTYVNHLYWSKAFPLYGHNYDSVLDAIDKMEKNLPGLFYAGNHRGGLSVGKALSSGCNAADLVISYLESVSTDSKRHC
Test: NtPPO inhibition in vitro, protoporphyrin IX formation by absorbance at […] nm
Type: biochemical

Compound | IC50 (read-out: IC50) [nM] | IC50 [nM]
CS(=O)(=O)NC(=O)c1cc(Oc2ccc(C(F)(F)F)cc2Cl)ccc1[N+](=O)[O-] [fomesafen] | 110 ± 1.2 | –
FC(F)(F)Oc1ccc(COc2ccc(-c3ncc(C(F)(F)F)cc3Cl)cc2)cc1 [7a, 3-Chloro-2-(4-((4-(trifluoromethoxy)benzyl)oxy)phenyl)-5-(trifluoromethyl)pyridine] | – | 9.4 ± 2.2

Reference: PMC9570041, “Synthesis of Novel α-Trifluoroanisole Derivatives Containing Phenylpyridine Moieties with Herbicidal Activity” (International Journal of Molecular Sciences, 2022)
